Assay results taken from PubChem BioAssay (NCI).
Several values for one entry are separate records, joined by “and”; a condition that tells them apart may be missing. Identical values can stand only once.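 96-well plates; 48 h exposure; 5 concentrations. Endpoints by linear interpolation between flanking doses. Not reached: highest tested concentration assigned. GI50: concentration for 50% inhibition of growth. TGI is the concentration that stops growth completely.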

Experiments:
Experiment in all cases: inhibition of tumour cell growth, NCI panel, 48 h
CAKI-1 renal = test system: CAKI-1 renal
K-562 leukemia = test system: K-562 leukemia
MCF7 breast = test system: MCF7 breast
OVCAR-5 ovarian = test system: OVCAR-5 ovarian
PC-3 prostate = test system: PC-3 prostate
SF-295 CNS = test system: SF-295 CNS
SF-539 CNS = test system: SF-539 CNS
SK-MEL-5 melanoma = test system: SK-MEL-5 melanoma
SK-OV-3 ovarian = test system: SK-OV-3 ovarian
UACC-257 melanoma = test system: UACC-257 melanoma

| Compound | GI50 (CAKI-1 renal) | TGI (CAKI-1 renal) | GI50 (K-562 leukemia) | TGI (K-562 leukemia) [µM] | GI50 (MCF7 breast) | TGI (MCF7 breast) [µM] | GI50 (OVCAR-5 ovarian) | TGI (OVCAR-5 ovarian) | GI50 (PC-3 prostate) [µM] | TGI (PC-3 prostate) [µM] | GI50 (SF-295 CNS) | TGI (SF-295 CNS) | GI50 (SF-539 CNS) | TGI (SF-539 CNS) | GI50 (SK-MEL-5 melanoma) | TGI (SK-MEL-5 melanoma) | GI50 (SK-OV-3 ovarian) | TGI (SK-OV-3 ovarian) | GI50 (UACC-257 melanoma) | TGI (UACC-257 melanoma) |
| --- | --- | --- | --- | --- | --- | --- | --- | --- | --- | --- | --- | --- | --- | --- | --- | --- | --- | --- | --- | --- |
| O=C(O)C1(C(=O)O)CCC1.[NH2-].[NH2-].[Pt+2] | > 90.8 µM and 66.7 µM | 231 µM and > 250 µM | 142 µM and > 166 µM | > 250 | 137 µM and 248 µM | > 250 | 233 µM and > 250 µM | > 250 µM | > 250 | > 250 | 63.1 µM and 111 µM | 236 µM and > 250 µM | 81.2 µM and 96 µM | 221 µM and > 250 µM | 109 µM and > 194 µM | 218 µM and > 250 µM | 172 µM and > 240 µM | 243 µM and > 250 µM | 129 µM and > 229 µM | 250 µM and > 250 µM |
| NCC1OC(n2cnc3c(N)ncnc32)CC1O (stereo not given) | – | > 100 µM | – | > 100 | – | > 100 | – | > 100 µM | – | > 100 | – | > 100 µM | – | > 100 µM | – | > 100 µM | – | > 100 µM | – | > 100 µM |
| COc1cc(C(=O)N2CCN(c3ncnc4ccccc34)CC2)c(N)cc1OCc1ccccc1 | 5.73 µM | 24.1 µM | 16.1 µM | 42.8 | 8.29 µM | 22.7 | 15.3 µM | 31.5 µM | 15.4 | 43.2 | 12.8 µM | 27.8 µM | 18.6 µM | 33.2 µM | 11.1 µM | 23 µM | 20.9 µM | 49 µM | 21.7 µM | 48.5 µM |
| CS(=O)(=O)CCc1cccc(C(=O)c2cnn(-c3ccc(F)cc3)c2N)c1 | > 25 µM | > 25 µM | > 25 µM | > 25 | > 25 µM | > 25 | > 25 µM | > 25 µM | > 25 | > 25 | > 25 µM | > 25 µM | > 25 µM | > 25 µM | > 25 µM | > 25 µM | > 25 µM | > 25 µM | > 25 µM | > 25 µM |
| Nc1nnnn1CCO | – | > 100 µM | – | > 100 | – | > 100 | – | > 100 µM | – | > 100 | – | > 100 µM | – | > 100 µM | – | > 100 µM | – | > 100 µM | – | > 100 µM |
| COCc1cc(C(=O)Nc2cc([C@H]3CC[C@@H](OC(=O)NC(C)C)C3)[nH]n2)n(C)n1 | 3.64 µM | 95.3 µM | 12.1 µM | > 100 | 2.53 µM | > 100 | 7.99 µM | > 100 µM | 10.3 | 73.6 | 13 µM | > 100 µM | 6.34 µM | 43.7 µM | 15.6 µM | 39.3 µM | 28.6 µM | 96.2 µM | 25.9 µM | > 100 µM |
| CCN(CC)c1ccc(C(O)C2=CC(=O)c3ccccc3C2=O)cc1 (stereo not given) | 2.31 µM | 7.4 µM | 0.416 µM | – | 1.58 µM | 6.31 | 1.94 µM | 3.66 µM | 0.156 | 0.959 | 2.23 µM | 7.45 µM | 2 µM | 4.18 µM | 0.914 µM | 2.88 µM | 2.66 µM | 6.82 µM | 1.96 µM | 5.02 µM |
| N=c1ccn(O)cc1/C=C1/C(=O)Nc2ccccc21 | > 100 µM | > 100 µM | > 100 µM | > 100 | > 100 µM | > 100 | > 100 µM | > 100 µM | > 100 | > 100 | > 100 µM | > 100 µM | > 100 µM | > 100 µM | > 100 µM | > 100 µM | > 100 µM | > 100 µM | > 100 µM | > 100 µM |
| CC1CCCC(C(O)CC2CC(=O)NC(=O)C2)C1O (stereo not given) | – | > 100 µM | – | > 100 | – | > 100 | – | > 100 µM | – | > 100 | – | > 100 µM | – | > 100 µM | – | > 100 µM | – | > 100 µM | – | > 100 µM |
| [N-]=[N+]=NCCCCCC(=O)OC(C(=O)c1ccccc1)c1cccc(OCC(=O)NCCOCCOCCNC(=O)CCCC[C@@H]2SC[C@@H]3NC(=O)N[C@@H]32)c1 (stereo not given in full) | > 100 µM | > 100 µM | 62.9 µM | > 100 | 51.3 µM | > 100 | > 100 µM | > 100 µM | > 100 | > 100 | > 100 µM | > 100 µM | 25.3 µM | 72.7 µM | > 100 µM | > 100 µM | > 100 µM | > 100 µM | > 100 µM | > 100 µM |
| O=C(COc1cc(O)c2c(=O)cc(-c3ccccc3)oc2c1)Nc1ccccc1C(F)(F)F | 3.74 µM | 18.7 µM | 5.03 µM | > 100 | 7.4 µM | > 100 | 7.18 µM | > 100 µM | 5.75 | > 100 | 2.94 µM | 9.13 µM | 2.21 µM | 5.5 µM | 4.1 µM | 25.4 µM | 14.9 µM | 50.7 µM | > 100 µM | > 100 µM |
| NCCOCCOCCNc1nc(-c2ccccc2)nc(N2CCN(c3ccccn3)CC2)n1 | 15.9 µM | 31.5 µM | 7.87 µM | 22.9 | 12.5 µM | 32.2 | 16.1 µM | 30.4 µM | 15.7 | 30.8 | 17.5 µM | 36 µM | 17.6 µM | 33.1 µM | 8.37 µM | 20.9 µM | 18.8 µM | 34.2 µM | 3.23 µM | 12.9 µM |
| NCCCCCCCn1c2c(c3ccccc3c1=O)C(=O)c1ccccc1-2 | 1.96 µM | 5.25 µM | 1.31 µM | 2.62 | 1.1 µM | 2.71 | 1.7 µM | 3.97 µM | 1.32 | 2.72 | 1.74 µM | 4.28 µM | 1.66 µM | 3.09 µM | 1.45 µM | 2.77 µM | 2.96 µM | 9.24 µM | 2.19 µM | 4.09 µM |
| Oc1ccc(-c2nc3ccccc3s2)cc1CN(Cc1ccccn1)Cc1ccccn1 | 0.313 µM | 3.36 µM | 0.674 µM | 35.5 | 1.19 µM | 15.2 | 2.92 µM | 29.8 µM | 1.09 | 21.8 | 0.468 µM | 6.87 µM | 1.42 µM | 6.75 µM | 0.556 µM | 2.27 µM | 1.35 µM | 43.5 µM | 3.1 µM | 13 µM |
| Clc1ccc(-c2c3c(nn2-c2ccccn2)CCc2ccccc2-3)cc1Cl | > 100 µM | > 100 µM | > 100 µM | > 100 | > 100 µM | > 100 | > 100 µM | > 100 µM | > 100 | > 100 | 95.2 µM | > 100 µM | > 100 µM | > 100 µM | > 100 µM | > 100 µM | > 100 µM | > 100 µM | > 100 µM | > 100 µM |
| CN(C)CCNC(=O)c1cccc(N(C)C(=O)c2ccccc2)c1[N+](=O)[O-] | – | > 100 µM | – | > 100 | – | > 100 | – | > 100 µM | – | > 100 | – | > 100 µM | – | > 100 µM | – | > 100 µM | – | > 100 µM | – | > 10 µM |
| Nc1nc2c(ncn2C2C=CC(CO)C2)c(=O)[nH]1 (stereo not given) | – | > 100 µM | – | > 100 | – | > 100 | – | > 100 µM | – | > 100 | – | > 100 µM | – | > 100 µM | – | > 100 µM | – | > 100 µM | – | > 100 µM |
| O=c1cc(-c2cccc3c2Sc2ccccc2S3)oc(N2CCOCC2)c1 | 5.3 µM | 18.9 µM | 5.98 µM | 30.9 | 5.94 µM | 22.4 | 13.5 µM | 28.3 µM | 6.26 | 20.9 | 11.5 µM | 24.9 µM | 11.6 µM | 25.1 µM | 8.53 µM | 22 µM | 13.4 µM | 27.3 µM | 13.9 µM | 27.1 µM |
| COc1cccc(NC(=O)c2sc3nc(C)c(C(O)c4ccccc4)cc3c2N)c1 (stereo not given) | 0.347 µM | 18 µM | 0.117 µM | > 100 | 0.0698 µM | 13.9 | 0.611 µM | 19.2 µM | 0.49 | 22.3 | 0.276 µM | 6.82 µM | 0.185 µM | 0.598 µM | 0.287 µM | 1.32 µM | 0.658 µM | 23.8 µM | 2.72 µM | 35.1 µM |
| CN(Cc1ccccc1)c1ccc(CO)c(Cl)c1 | 2.93 µM | 50.9 µM | 9.81 µM | > 100 | 1.49 µM | 40.3 | 0.595 µM | 3.08 µM | 28.6 | > 100 | 4.25 µM | > 76.8 µM | 61.3 µM | > 100 µM | 13.6 µM | 37.5 µM | 8.99 µM | 52 µM | 0.432 µM | 1.69 µM |
| Cc1csc(/C=C/C(=O)c2nnn(-c3ccnc4c(C(F)(F)F)cccc34)c2C)c1 | 42.4 µM | > 100 µM | 23 µM | > 100 | > 100 µM | > 100 | > 100 µM | > 100 µM | 29.7 | > 100 | > 100 µM | > 100 µM | > 100 µM | > 100 µM | 17.9 µM | 57 µM | 89.1 µM | > 100 µM | 13.7 µM | 60.9 µM |
| CCC/C(=N\NC(=S)N1CC2CCC(CC2)C1)c1ccccn1 | 1.03 µM | 2.75 µM and 2.69 µM | – | 1.23 | – | 1.44 | 1.25 µM | 5.64 µM and 3 µM | – | 1.39 | 0.114 µM | 1.2 µM | 1.16 µM | 1.55 µM and 5.36 µM | 0.0467 µM | 0.757 µM and 0.483 µM | 1.1 µM | 2.13 µM and 2.31 µM | – | 0.197 µM and 1.35 µM |
